Series [1] concerns the target Replicase polyprotein 1ab (Severe acute respiratory syndrome coronavirus 2) (UniProt P0DTD1). In words: Inhibition of recombinant SARS-CoV-2 main protease at 1 uM using Dabcyl-KTSAVLQSGFRKM{Glu(Edans)} as substrate preincubated for 10 mins followed by substrate addition and measured at 60 secs interval for 30 mins by fluorogenic assay relative to control. As to conditions: time 40.0 min.

A further series concerns 16HBE14o-. In words: Cytotoxicity against human 16HBE14o- cells assessed as reduction in cell viability at 100 uM measured after 24 hrs by MTT assay. It counts as toxicity, cell-based. Background: Tetrazolium assays rely on reduction of a dye to a coloured formazan, in cell work by metabolically active cells.
Series [2] concerns the target T1, Replicase polyprotein 1ab (Severe acute respiratory syndrome coronavirus 2, UniProt P0DTD1). In words: Inhibition of recombinant SARS-CoV-2 main protease using Dabcyl-KTSAVLQSGFRKM{Glu(Edans)} as substrate preincubated for 10 mins followed by substrate addition and measured at 60 secs interval for 30 mins by fluorogenic assay.
For series [3], the target named is T1, Replicase polyprotein 1ab. In words: Competitive inhibition of recombinant SARS-CoV-2 main protease using varying levels of Dabcyl-KTSAVLQSGFRKM{Glu(Edans)} as substrate by Lineweaver-Burk plot analysis.

The inhibition is the share of the control response that was lost under treatment. Turning to `CC(C)c1nc(CN(C)C(=O)N[C@H](C(=O)N[C@@H](Cc2ccccc2)C[C@H](O)[C@H](Cc2ccccc2)NC(=O)OCc2cncs2)C(C)C)cs1`, the inhibition in series [1] is 24%.
Consider `Cc1cccc(C)c1OCC(=O)N[C@@H](Cc1ccccc1)[C@@H](O)C[C@H](Cc1ccccc1)NC(=O)[C@H](C(C)C)N1CCCNC1=O`, for which the inhibition in series [1] is 33%.
The same measure, in the same setting: the value for `O=C(Nc1ccccc1)c1[nH]cnc1C(=O)N1CCOCC1` was 15%.
Still for that read-out and setting: the value for `O=C(Nc1ccc(Cl)cc1)c1[nH]cnc1C(=O)N1CCOCC1` was 3%.
As a reminder, the IC50 is the concentration that inhibits the measured activity by half. With `Cc1nc(C(=O)N2CCOCC2)c(C(=O)Nc2cc(Cl)c(Cl)cc2Cl)[nH]1`, the Activity result with 16HBE14o- was “Non-toxic”. The inhibition in series [1] was 39%. Moreover, the IC50 in series [2] was found to be 13.3 µM.
For the molecule `Cc1nc(C(=O)N2CCOCC2)c(C(=O)Nc2cc(Cl)ccc2Cl)[nH]1`, the Activity entry with 16HBE14o- is “Non-toxic”. In series [1], the inhibition is 38%. For the same molecule, the IC50 in series [2] came to 8.43 µM.
Consider `Cc1nc(C(=O)N2CCOCC2)c(C(=O)Nc2ccccc2)[nH]1`, for which the Activity result in the series on 16HBE14o- is listed as “Non-toxic”. Also, in series [1], the inhibition was determined as 24%.
Usually Ki stands for the equilibrium dissociation constant of an inhibitor or competing ligand from its target. With `Cc1nc(C(=O)N2CCOCC2)c(C(=O)Nc2ccc(Cl)cc2)[nH]1`, the Activity result in the series with 16HBE14o- is listed as “Non-toxic”. In addition, in series [1], the inhibition amounted to 38%. For the same molecule, the Ki in series [3] was 15 µM. Moreover, the IC50 in series [2] worked out at 4.79 µM.
Regarding `O=c1c2ccccc2[se]n1-c1ccccc1`, the inhibition in series [1] was found to be 100%.
In the case of `O=C(Nc1cc(Cl)ccc1Cl)c1[nH]cnc1C(=O)N1CCOCC1`, the inhibition in series [1] amounted to 18%.
Consider `Cc1nc(C(=O)N2CCOCC2)c(C(=O)Nc2ccc(Cl)c(Cl)c2)[nH]1`, for which the inhibition in series [1] is 33%. Moreover, the IC50 in series [2] worked out at 22.9 µM.
In the case of `O=C(Nc1ccc(Cl)c(Cl)c1)c1[nH]cnc1C(=O)N1CCOCC1`, in the series with 16HBE14o-, the Activity result was “Non-toxic”. Moreover, the inhibition in series [1] came out at 33%. Further, in series [2], the IC50 was 44.6 µM.
Turning to `O=C(Nc1cc(Cl)c(Cl)cc1Cl)c1[nH]cnc1C(=O)N1CCOCC1`, the inhibition in series [1] is 16%.

For the origin of these results see ChEMBL document CHEMBL6134789, “Asymmetric imidazole-4,5-dicarboxamide derivatives as SARS-CoV-2 main protease inhibitors: design, synthesis and biological evaluation” (RSC Med Chem, 2024).
